Test results published in patent publication US9969752B2, “Inhibitors of HIF prolyl hydroxylase” (MERCK SHARP & DOHME CORP., priority 2014, dated 2018).

Each compound was assayed against T1, Human HIF-PHD2 (Homo sapiens, UniProt Q9GZT9) (assay: Inhibition of the hydroxylation of a HIF peptide by PHD2 (time resolved fluorescence, 384-well)). Details: FLAG-tagged full length PHD2; 0.2 μM 2-oxoglutarate, 0.5 μM HIF-1α peptide; 45 minutes at room temperature; read-out: Human HIF-PHD2 IC50.
T1 construct: FLAG-tagged full length PHD2 expressed in and purified from baculovirus-infected Sf9 cells; FLAG; made in house; host or cells: baculovirus-infected Sf9 cells
Type: biochemical
Method: To each well of a 384-well plate, 1 μL of test compounds in DMSO (final concentration ranging from 0.3 nM to 10 uM) were added into 20 μl of assay buffer (50 mM Tris pH 7.4/0.01% Tween-20/0.1 mg/ml bovine serum albumin/10 μM ferrous sulfate/1 mM sodium ascorbate/20 μg/ml catalase) containing 0.15 μg/ml FLAG-tagged full length PHD2 expressed in and purified from baculovirus-infected Sf9 cells. After a 5 min preincubation at room temperature, the enzymatic reactions were initiated by the addition of 4 μL of substrates {final concentrations of 0.2 μM 2-oxoglutarate and 0.5 μM HIF-1α peptide biotinyl-[…] […] After incubation for 45 minutes at room temperature, the reactions were terminated by the addition of a 25 μL quench/detection mix to a final concentration of 1 mM ortho-phenanthroline, 0.1 mM EDTA, 0.5 nM anti-(His)6 LANCE reagent (Perkin-Elmer Life Sciences), 100 nM AF647-labeled streptavidin (Invitrogen), and 2 μg/ml (His)6-VHL complex {S. Tan Protein Expr. Purif.

T1 sequence (Q9GZT9 whole entry): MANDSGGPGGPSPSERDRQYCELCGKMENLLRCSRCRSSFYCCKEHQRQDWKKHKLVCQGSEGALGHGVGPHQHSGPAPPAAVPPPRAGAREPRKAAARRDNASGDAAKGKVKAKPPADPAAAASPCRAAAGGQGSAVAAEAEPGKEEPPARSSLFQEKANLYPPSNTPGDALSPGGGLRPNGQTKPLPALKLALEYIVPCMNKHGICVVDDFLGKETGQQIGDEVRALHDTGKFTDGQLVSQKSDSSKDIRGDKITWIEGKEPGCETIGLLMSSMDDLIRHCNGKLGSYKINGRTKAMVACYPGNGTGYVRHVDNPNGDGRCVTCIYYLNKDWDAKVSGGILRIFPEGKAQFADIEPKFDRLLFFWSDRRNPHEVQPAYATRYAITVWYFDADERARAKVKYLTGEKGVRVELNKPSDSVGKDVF

IC50 [nM]	SMILES
9.4	O=C(O)CNC(=O)c1c(O)c2c(F)ccc3c2n(c1=O)C(c1ccc(C(F)(F)F)cc1)CN3 (stereo not drawn) [Example 121, 2-(8-Fluoro-7-hydroxy-5-oxo-3-(4-(trifluoromethyl)phenyl)-1,2,3,5-tetrahydropyrido[1,2,3-de]quinoxaline-6-carboxamido)acetic acid]
1	O=C(O)CNC(=O)c1c(O)c2cccc3c2n(c1=O)CC(c1ccc(C(F)(F)F)cc1)[S+]3[O-] (stereo not drawn) [Example 59, 2-(7-Hydroxy-1-oxido-5-oxo-2-(4-(trifluoromethyl)phenyl)-3,5-dihydro-2H-[1,4]thiazino[2,3,4-ij]quinoline-6-carboxamido)acetic acid]
68	CN1CC(c2ccc(C(F)(F)F)cc2)n2c(=O)c(C(=O)NCC(=O)O)c(O)c3cccc1c32 (stereo not drawn) [Example 107, 2-(7-Hydroxy-1-methyl-5-oxo-3-(4-(trifluoromethyl)phenyl)-1,2,3,5-tetrahydropyrido[1,2,3-de]quinoxaline-6-carboxamido)acetic acid]
12	O=C(O)CNC(=O)c1c(O)c2cc(-c3ccn[nH]3)cc3c2n(c1=O)C(c1ccc(C(F)(F)F)cc1)CO3 (stereo not drawn) [Example 185, 2-(7-Hydroxy-5-oxo-9-(1H-pyrazol-5-yl)-3-(4-(trifluoromethyl)phenyl)-3,5-dihydro-2H-[1,4]oxazino[2,3,4-ij]quinoline-6-carboxamido)acetic acid]
12	Cc1ccc2c(O)c(C(=O)NCC(=O)O)c(=O)n3c2c1OCC3 [Example 39, 2-(7-Hydroxy-10-methyl-5-oxo-3,5-dihydro-2H-[1,4]oxazino[2,3,4-ij]quinoline-6-carboxamido)acetic acid]
5.1	N#Cc1ccc2c3c1c(O)c(C(=O)NCC(=O)O)c(=O)n3C(c1ccc(C(F)(F)F)cc1)CS2 (stereo not drawn) [Example 99, 2-(8-Cyano-7-hydroxy-5-oxo-3-(4-(trifluoromethyl)phenyl)-3,5-dihydro-2H-[1,4]thiazino[2,3,4-ij]quinoline-6-carboxamido)acetic acid]
10	O=C(O)CNC(=O)c1c(O)c2cc(Cl)cc3c2n(c1=O)CC(c1ccc(C(F)(F)F)cc1)O3 (single isomer, unassigned) [Example 74, 2-(9-Chloro-7-hydroxy-5-oxo-2-(4-(trifluoromethyl)phenyl)-3,5-dihydro-2H-[1,4]oxazino[2,3,4-ij]quinoline-6-carboxamido)acetic acid]
2.6	N#Cc1cc2c3c(c1)c(O)c(C(=O)NCC(=O)O)c(=O)n3CCC2 [Example 48, 2-(9-Cyano-1-hydroxy-3-oxo-3,5,6,7-tetrahydropyrido[3,2,1-ij]quinoline-2-carboxamido)acetic acid]
0.9	CS(=O)(=O)c1cc2c3c(c1)c(O)c(C(=O)NCC(=O)O)c(=O)n3CC(c1ccc(C(F)(F)F)nc1)C2 (stereo not drawn) [Example 85, 2-(1-hydroxy-9-(methylsulfonyl)-3-oxo-6-(6-(trifluoromethyl)pyridin-3-yl)-3,5,6,7-tetrahydropyrido[3,2,1-ij]quinoline-2-carboxamido)acetic acid]
5.5	CN1CC(c2ccc(C(F)(F)F)cc2)n2c(=O)c(C(=O)NCC(=O)O)c(O)c3cc(C#N)cc1c32 (stereo not drawn) [Example 95, 2-(9-Cyano-7-hydroxy-1-methyl-5-oxo-3-(4-(trifluoromethyl)phenyl)-1,2,3,5-tetrahydropyrido[1,2,3-de]quinoxaline-6-carboxamido)acetic acid]
27	O=C(O)CNC(=O)c1c(O)c2cccc3c2n(c1=O)C(c1ccc(C(F)(F)F)cc1)CN3 (stereo not drawn) [Example 106, 2-(7-Hydroxy-5-oxo-3-(4-(trifluoromethyl)phenyl)-1,2,3,5-tetrahydropyrido[1,2,3-de]quinoxaline-6-carboxamido)acetic acid]
12	CC(O)c1cc2c3c(c1)c(O)c(C(=O)NCC(=O)O)c(=O)n3C(Cc1ccc(C(F)(F)F)cc1)CO2 (stereo not drawn) [Example 35, 2-(7-Hydroxy-9-(1-hydroxyethyl)-5-oxo-3-(4-(trifluoromethyl)benzyl)-3,5-dihydro-2H-[1,4]oxazino[2,3,4-ij]quinoline-6-carboxamido)acetic acid]
10	O=C(O)CNC(=O)c1c(O)c2c(F)ccc3c2n(c1=O)CC(c1ccc(C(F)(F)F)cc1)N3 (stereo not drawn) [Example 119, 2-(8-Fluoro-7-hydroxy-5-oxo-2-(4-(trifluoromethyl)phenyl)-1,2,3,5-tetrahydropyrido[1,2,3-de]quinoxaline-6-carboxamido)acetic acid]
15	O=C(O)CNC(=O)c1c(O)c2cccc3c2n(c1=O)C(Cc1ccc(Cl)cc1)CC3 (racemic) [Example 131, 2-(5-(4-Chlorobenzyl)-1-hydroxy-3-oxo-3,5,6,7-tetrahydropyrido[3,2,1-ij]quinoline-2-carboxamido)acetic acid]
125	CN1CC(c2cncs2)n2c(=O)c(C(=O)NCC(=O)O)c(O)c3cccc1c32 (stereo not drawn) [Example 113, 2-(7-Hydroxy-1-methyl-5-oxo-3-(thiazol-5-yl)-1,2,3,5-tetrahydropyrido[1,2,3-de]quinoxaline-6-carboxamido)acetic acid]
2	N#Cc1ccc(C2Cn3c(=O)c(C(=O)NCC(=O)O)c(O)c4ccc(C(F)(F)F)c(c43)O2)cc1 (single isomer, unassigned) [Example 77, 2-(2-(4-cyanophenyl)-7-hydroxy-5-oxo-10-(trifluoromethyl)-3,5-dihydro-2H-[1,4]oxazino[2,3,4-ij]quinoline-6-carboxamido)acetic acid]
5	O=C(O)CNC(=O)c1c(O)c2cccc3c2n(c1=O)CC(c1ccc(C(F)(F)F)nc1)C3 (stereo not drawn) [Example 83, 2-(1-Hydroxy-3-oxo-6-(6-(trifluoromethyl)pyridin-3-yl)-3,5,6,7-tetrahydropyrido[3,2,1-ij]quinoline-2-carboxamido)acetic acid]
1.3	CS(=O)(=O)c1ccc2c(O)c(C(=O)NCC(=O)O)c(=O)n3c2c1OC(c1ccc(C(F)(F)F)cc1)C3 (single isomer, unassigned) [Example 24, 2-(7-Hydroxy-10-(methylsulfonyl)-5-oxo-2-(4-(trifluoromethyl)phenyl)-3,5-dihydro-2H-[1,4]oxazino[2,3,4-ij]quinoline-6-carboxamido)acetic acid]
2.3	O=C(O)CNC(=O)c1c(O)c2ccc(Br)c3c2n(c1=O)CC(c1ccc(C(F)(F)F)cc1)O3 (stereo not drawn) [Example 22, 2-(10-Bromo-7-hydroxy-5-oxo-2-(4-(trifluoromethyl)phenyl)-3,5-dihydro-2H-[1,4]oxazino[2,3,4-ij]quinoline-6-carboxamido)acetic acid]

Same assay, conditions: FLAG-tagged full length PHD2; 0.2 μM 2-oxoglutarate, 0.5 μM HIF-1α peptide; 45 minutes at room temperature; read-out: MS m/z (M + 1)+ and human HIF-PHD2 IC50

IC50 [nM]	SMILES
19	O=C(O)CNC(=O)c1c(O)c2cccc3c2n(c1=O)C(c1ccc(-c2cccc(Cl)c2)cc1)CO3 (stereo not drawn) [Example 142, N-{[3-(3′-chlorobiphenyl-4-yl)-7-hydroxy-5-oxo-2,3-dihydro-5H-[1,4]oxazino[2,3,4-ij]quinolin-6-yl]carbonyl}glycine]
9.2	O=C(O)CNC(=O)c1c(O)c2cccc3c2n(c1=O)C(c1ccc(-c2cccnc2)cc1)CO3 (stereo not drawn) [Example 151, N-{[7-hydroxy-5-oxo-3-(4-pyridin-3-ylphenyl)-2,3-dihydro-5H-[1,4]oxazino[2,3,4-ij]quinolin-6-yl]carbonyl}glycine]
14	O=C(O)CNC(=O)c1c(O)c2cccc3c2n(c1=O)C(c1cnco1)CO3 (stereo not drawn) [Example 173, 2-(7-hydroxy-3-(oxazol-5-yl)-5-oxo-3,5-dihydro-2H-[1,4]oxazino[2,3,4-ij]quinoline-6-carboxamido)acetic acid]
10	N#Cc1ccc(C2COc3cccc4c(O)c(C(=O)NCC(=O)O)c(=O)n2c34)cc1 (stereo not drawn) [Example 181, ammonium 2-(3-(4-cyanophenyl)-7-hydroxy-5-oxo-3,5-dihydro-2H-[1,4]oxazino[2,3,4-ij]quinoline-6-carboxamido)acetate]
6.1	N#Cc1ccc(-c2ccc(C3COc4cccc5c(O)c(C(=O)NCC(=O)O)c(=O)n3c45)cc2)cc1 (stereo not drawn) [Example 146, N-{[3-(4′-cyanobiphenyl-4-yl)-7-hydroxy-5-oxo-2,3-dihydro-5H-[1,4]oxazino[2,3,4-ij]quinolin-6-yl]carbonyl}glycine]
11	O=C(O)CNC(=O)c1c(O)c2cccc3c2n(c1=O)C(c1ccc(-c2ccn[nH]2)cc1)CO3 (stereo not drawn) [Example 152, 2-(3-(4-(1H-pyrazol-5-yl)phenyl)-7-hydroxy-5-oxo-3,5-dihydro-2H-[1,4]oxazino[2,3,4-ij]quinoline-6-carboxamido)acetic acid]
3.3	O=C(O)CNC(=O)c1c(O)c2c(F)ccc3c2n(c1=O)CC(c1ccc(C(F)(F)F)cc1)O3 (single isomer, unassigned) [Example 69, 2-(8-fluoro-7-hydroxy-5-oxo-2-(4-(trifluoromethyl)phenyl)-3,5-dihydro-2H-[1,4]oxazino[2,3,4-ij]quinoline-6-carboxamido)acetic acid]
19	CS(=O)(=O)c1cc2c3c(c1)c(O)c(C(=O)NCC(=O)O)c(=O)n3C(c1ccc(C(F)(F)F)cc1)CO2 (stereo not drawn) [Example 184, ammonium 2-(7-hydroxy-9-(methylsulfonyl)-5-oxo-3-(4-(trifluoromethyl)phenyl)-3,5-dihydro-2H-[1,4]oxazino[2,3,4-ij]quinoline-6-carboxamido)acetate]
